Reference: ChEMBL document CHEMBL3046952, “Stereoselective synthesis of 2-amino-1-hydroxy-3-phenylpropylphosphonic acid” (1996)
Calls of active or inactive are those of the source. The calls are words filed in the database; no cut-off is given here.

Tests used:
[1] = system: Lepidium sativum; assay: Inhibition of growth of Lepidium sativum root at 0.15 mM relative to control; type: functional; conditions: read-out: GI
[2] = system: Lepidium sativum; assay: Inhibition of growth of Lepidium sativum hypocotyl at 0.15 mM relative to control; type: functional; conditions: read-out: GI
[3] = system: Cucumis sativus; assay: Inhibition of growth of Cucumis sativus (cucumber) hypocotyl at 0.15 mM relative to control; type: functional; conditions: read-out: GI
[4] = system: Cucumis sativus; assay: Inhibition of growth of Cucumis sativus (cucumber) hypocotyl at 1.5 mM relative to control; type: functional; conditions: read-out: GI
[5] = system: Lepidium sativum; assay: Inhibition of growth of Lepidium sativum root at 0.5 mM relative to control; type: functional; conditions: read-out: GI
[6] = system: Cucumis sativus; assay: Inhibition of growth of Cucumis sativus (cucumber) hypocotyl at 0.05 mM relative to control; type: functional; conditions: read-out: GI
[7] = system: Lepidium sativum; assay: Inhibition of growth of Lepidium sativum hypocotyl at 0.05 mM relative to control; type: functional; conditions: read-out: GI
[8] = system: Lepidium sativum; assay: Inhibition of growth of Lepidium sativum hypocotyl at 0.5 mM relative to control; type: functional; conditions: read-out: GI
[9] = Inhibition of cytosolic aminopeptidase
[10] = Inhibition of microsomal aminopeptidase
[11] = system: Cucumis sativus; assay: Inhibition of growth of Cucumis sativus (cucumber) root at 0.05 mM relative to control; type: functional; conditions: read-out: GI
[12] = system: Lepidium sativum; assay: Inhibition of growth of Lepidium sativum root at 0.05 mM relative to control; type: functional; conditions: read-out: GI
[13] = system: Cucumis sativus; assay: Inhibition of growth of Cucumis sativus (cucumber) root at 0.5 mM relative to control; type: functional; conditions: read-out: GI
[14] = system: Cucumis sativus; assay: Inhibition of growth of Cucumis sativus (cucumber) root at 0.15 mM relative to control; type: functional; conditions: read-out: GI
[15] = system: Cucumis sativus; assay: Inhibition of growth of Cucumis sativus (cucumber) hypocotyl at 0.5 mM relative to control; type: functional; conditions: read-out: GI
[16] = system: Lepidium sativum; assay: Inhibition of growth of Lepidium sativum root at 1.5 mM relative to control; type: functional; conditions: read-out: GI
[17] = system: Cucumis sativus; assay: Inhibition of growth of Cucumis sativus (cucumber) root at 1.5 mM relative to control; type: functional; conditions: read-out: GI
[18] = system: Lepidium sativum; assay: Inhibition of growth of Lepidium sativum hypocotyl at 1.5 mM relative to control; type: functional; conditions: read-out: GI

| Structure (SMILES) | inhibition of growth at 150 µM [1] [%] | inhibition of growth at 150 µM [2] [%] | inhibition of growth at 150 µM [3] [%] | inhibition of growth at 1500 µM [4] [%] | inhibition of growth at 500 µM [5] [%] | inhibition of growth at 50 µM [6] [%] | inhibition of growth at 50 µM [7] [%] | inhibition of growth at 500 µM [8] [%] | inhibition [9] | inhibition [10] | inhibition of growth at 50 µM [11] [%] | inhibition of growth at 50 µM [12] [%] | inhibition of growth at 500 µM [13] [%] | inhibition of growth at 150 µM [14] [%] | inhibition of growth at 500 µM [15] [%] | inhibition of growth at 1500 µM [16] [%] | inhibition of growth at 1500 µM [17] [%] | inhibition of growth at 1500 µM [18] [%] |
| --- | --- | --- | --- | --- | --- | --- | --- | --- | --- | --- | --- | --- | --- | --- | --- | --- | --- | --- |
| N[C@@H](Cc1ccccc1)[C@H](O)P(=O)(O)O (stereo in doubt) | 86 | 46 | 45 | 64 | 87 | 36 | 22 | 64 | inactive | inactive | 69 | 82 | 81 | 75 | 56 | 92 | 83 | 68 |
| N[C@H](Cc1ccccc1)[C@@H](O)P(=O)(O)O (stereo in doubt) | 66 | 9 | 33 | 49 | 74 | 23 | 16 | – | inactive | inactive | 51 | 36 | 73 | 68 | 37 | 88 | 80 | 54 |
| O=C(O)CNCP(=O)(O)O [GLYPHOSATE] | 88 | 16 | – | 22 | 90 | – | 13 | 20 | – | – | 60 | 86 | 78 | 71 | – | 93 | 84 | 44 |
